Entries after “also recorded” stand apart in the source; their conditions may differ.
What was measured:
MPTP-lesioned mice = type: in vivo, C57BL/6 mice
Experimental: Experimental mice were lesioned with MPTP (i.e., 40 mg/kg, ip twice, 1 month).
METHODS: Rota-Rod performance measures the length of time each animal manages to maintain its balance on the rotating lucite rod. Prior to MPTP-esioning animals, the performance was conditioned in three training sessions. The general training and testing procedure was as follows: namely,
Animals were placed on a stationary rod for 30 sec to accustom the behavior and establish familiarity with the environment. During this time if an animal fell, it was placed back on the rod; Next, animals were conditioned (or tested) at a constant speed of 5 rpm for 90 sec.;
Any animal that failed a first test was re-tested two more times; Any animal that failed a third test at 5 rpm was removed from the experiment; Thirty-minutes (30 min) after the last 5 rpm trial, each animal was placed back on the rod the speed was increased to 10 rpm; The length of time that each animal was able to maintain balance on the rod was measured at the constant speed of 10 rpm, i.e., data collection.

[1] = tested on: Tyrosine hydroxylase (TH); conditions: 20 mg/kg for two months vs NaCl
human DAT = human DAT (Homo sapiens, UniProt Q01959)
Experimental: To obtain differing levels of DAT expression, cells were transiently transfected) with plasmids containing a DAT cDNA insert (hDAT), or alternatively, control irrelevant cDNA insert (Negative Control, NC). After 48-72 hrs. culture, dopamine transport was measured in the transiently transfected hDAT-cells by incubation for 5 hrs. in the presence of ^3H-labeled dopamine (Positive Control, PC).

Nurr1 deficient mice = tested on: Nurr1 deficient mice
Experimental: Rota rod performance measurements were made on a weekly basis during an 8 week treatment period.
MATERIALS AND METHODS: RotaRod performance measurements (time that balance was maintained on the rod) were performed (as in Study #1), each week during 8 weeks of treatment.

6-OHDA-lesioned rats = tested on: 6-OHDA-lesioned rats
Description: The nigral dopamine depletion is induced by using unilateral injections of 6-OHDA directly into the nigrostriatal system (AP: −4.4 mm, ML: 1.1 mm, DV: 7.5 mm, AP: −4.0 mm, ML: 0.8 mm, DV: 7.8 mm).
METHODS for STUDY #2: The Rota-Count 8 unit is an eight channel rotational meter. The system utilizes a digital rotary encoder and each encoder is mounted in a small bowl with a cable attachment; thereby, rotations of rats are automatically recorded. 6-OHDA in 0.9% NaCl at a concentration of 0.2% (w/v)-8 μl injected into the nigrostriatum. To control for injection failures in the injections, only 6-OHDA-lesioned rats that rotated more than 5 cycles/min at 7 days post-injection were selected for experimental use.

human DAT, sequence (Q01959 whole entry): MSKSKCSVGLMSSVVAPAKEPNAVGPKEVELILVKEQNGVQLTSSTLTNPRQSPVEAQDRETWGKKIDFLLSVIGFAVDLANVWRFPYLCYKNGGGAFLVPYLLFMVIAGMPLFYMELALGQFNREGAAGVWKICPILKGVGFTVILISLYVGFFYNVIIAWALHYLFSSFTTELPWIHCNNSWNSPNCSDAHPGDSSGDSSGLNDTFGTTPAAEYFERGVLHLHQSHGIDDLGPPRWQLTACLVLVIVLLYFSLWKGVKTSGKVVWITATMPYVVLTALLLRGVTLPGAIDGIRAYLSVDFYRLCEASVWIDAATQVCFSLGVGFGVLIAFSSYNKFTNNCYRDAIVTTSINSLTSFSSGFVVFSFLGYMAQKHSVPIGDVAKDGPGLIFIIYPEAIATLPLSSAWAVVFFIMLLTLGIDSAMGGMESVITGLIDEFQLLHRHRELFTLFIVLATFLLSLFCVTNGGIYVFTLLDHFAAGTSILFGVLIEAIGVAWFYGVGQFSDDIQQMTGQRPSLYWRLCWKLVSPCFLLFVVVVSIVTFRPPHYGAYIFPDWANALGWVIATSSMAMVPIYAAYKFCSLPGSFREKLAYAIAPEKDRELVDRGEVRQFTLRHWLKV

CN1CC=C(c2ccccc2)CC1 [MPTP, 1,2,3,6-methyl-phenyl-tetrahydropyridine, reference compound]
reduction of Rota-Rod mean time (MPTP-lesioned mice; after lesioning, 40 mg/kg ip twice): over 65%

Dopamine gluconamide [Compound #1]
amount of TH per neuron [1]: qualitatively much higher | increase in number of neurons staining positively for TH ([1]; not statistically significant, n=6): 20-30% | competition of 3H-dopamine uptake (human DAT; hDAT-transfected cells, 5 hrs. incubation): Competition of ^3H-dopamine uptake was observed | transportability at DAT (human DAT; summary of EXAMPLE 12): transportable at DAT | stability of Rota Rod performance during treatment (Nurr1 deficient mice; 20 mg/kg twice daily, 8 weeks): remained stable during the course of the 8-week treatment study | improvement of Rota Rod performance relative to saline treated controls (Nurr1 deficient mice; 20 mg/kg twice daily, within two weeks of treatment): about 2 fold | Rota-Rod time compared with pretreatment performance times (Nurr1 deficient mice; 20 mg/kg, p<0.05): significant increase of Rota-Rod time within two weeks of treatment | time to return of Rota-Rod performance to pre-treatment values after cessation of treatment (Nurr1 deficient mice; after 8 weeks of treatment): ≤ 2 weeks | Rota-Rod performance after cessation of treatment (washout) (Nurr1 deficient mice; after 8 weeks of treatment, p<0.05): degraded significantly within one week | apomorphine-induced rotation (6-OHDA-lesioned rats; 20 mg/kg, 4 weeks, p<0.05): significantly decreased apomorphine-induced rotation | agonist effects (rotation triggered by the compound itself) (6-OHDA-lesioned rats; 80 mg/kg or 200 mg/kg): did not trigger visible effects | Rota-Rod performance times relative to NaCl-treated controls (MPTP-lesioned mice; mouse, in vivo): 8-9 fold | onset of significant improvement in Rota-rod performance times (MPTP-lesioned mice; mouse, in vivo): about the third week of treatment; also recorded: about the second week | locomotor activity after two months of treatment (MPTP-lesioned mice; mouse, in vivo, ip, 20 mg/kg): recovered locomotor activity
